Test results as given in US9353089B2, “Compositions and methods for the treatment of malaria” (Saint Louis University, priority 2013, dated 2016).
Where two headings read alike, the source gives them in different places.

Key:
[1] = test system: Plasmodium falciparum 3D7 (CQ-sensitive); assay: In vitro antimalarial assay (malaria SYBR Green I-based fluorescence, MSF), 3D7; type: cell-based
Experimental: Stock solutions of each test drug were prepared in DMSO at a concentration of 20 mM. The drug solutions were serially diluted with culture medium and distributed to asynchronous parasite cultures on 96-well plates in quadruplicate in a total volume of 100 μL to achieve 0.5% parasitemia with a 2% hematocrit in a total volume of 100 pt. […] After incubation, 100 μL of lysis buffer with 0.2 μL/mL SYBR Green I was added to each well.
Antimalarial potency of compounds was determined by this technique for both Plasmodium falciparum 3D7 (CQ-sensitive) and Dd2 (multi-drug resistant) strains.

[2] = target: Plasmepsin-2 (PM-2; Plm II) (Plasmodium falciparum (isolate HB3), UniProt P46925); assay: Plasmepsin-2 enzyme inhibition assay; type: biochemical
Experimental: Plasmepsin-2 (PM-2; Plm II) and Plasmepsin (PM-4; Plm IV) expression and purification was performed following the published protocols (Istvan E S and Goldberg D E, 2005). The final purified protein was activated by diluting the protein to 0.3 mg/mL in activating buffer (0.1 M citrate pH 4.5, 0.1% Tween-20, 50 mM dithiothreitol) and incubated at room temperature for 40 min, then the activated enzyme was diluted in assay buffer (50 mM sodium acetate pH 4.7, 0.01% Tween-20). The enzymatic inhibition reaction was performed in 384 well plates with a total volume of 20 μl. 10 μl of diluted PM-2 or PM-4 enzyme was added to the 384-well plate except blank wells (blank wells add 10 μL of assay buffer) and 20 nL of serials of diluted 1000× compounds were added to the wells with 520 Echo® Liquid Handling System (Labcyte Inc.). 10 μL PM-2 peptide substrate (AnaSpec, Cat#, 62050) with assay buffer was then added to final concentration of 20 μM to start the reaction. After incubation the reaction at room temperature for 60 min, the fluorescence intensity at Ex/Em=360 nm/535 nm was measured using EnVision multilabel plate reader (Perkin-Elmer). The IC50 values were obtained using Graph Pad Prism 4 and are reported in Tables 8 and 9 below as PM-2 IC50 values.

[3] = 3D7, Table 13, read-out: 3D7 IC50
[4] = 3D7, Table 11, read-out: Pf 3D7 IC50
[5] = 3D7, Table 10, read-out: Pf3D7 IC50

Plasmepsin-2 (PM-2; Plm II), sequence (P46925 125-453 limits assumed): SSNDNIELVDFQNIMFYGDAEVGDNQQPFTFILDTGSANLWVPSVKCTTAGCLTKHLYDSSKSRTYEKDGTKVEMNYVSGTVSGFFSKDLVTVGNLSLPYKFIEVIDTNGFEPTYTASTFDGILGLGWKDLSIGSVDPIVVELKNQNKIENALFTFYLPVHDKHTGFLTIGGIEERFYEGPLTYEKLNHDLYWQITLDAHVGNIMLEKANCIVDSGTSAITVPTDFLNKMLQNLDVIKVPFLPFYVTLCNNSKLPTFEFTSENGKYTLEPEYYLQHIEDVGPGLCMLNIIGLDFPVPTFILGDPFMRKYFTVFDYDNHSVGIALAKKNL

SMILES: N=C1NC(c2ccccc2)(c2cccc(-c3ccccc3)c2)C(=O)N1C1CCCCC1 (stereo not shown) [Example 212, 3-cyclohexyl-2-imino-5-phenyl-5-(3-phenylphenyl)-imidazolidin-4-one]
- IC50 [1, 3]: 1710 nM
- IC50 ([2]; Table 13, read-out: PM-2 IC50): 12.3 nM

SMILES: CCOc1ccc(C2(c3ccc(OCC)cc3)NC(=N)N(C3CCCCC3)C2=O)cc1 [Example 157, 3-cyclohexyl-5,5-bis(4-ethoxyphenyl)-2-iminoimidazolidin-4-one]
- IC50 [1, 4]: 466 nM
- IC50 [1, 3]: 466 nM
- IC50 ([2]; Table 13, read-out: PM-2 IC50): 6.87 nM

SMILES: Cc1ccc(C2(c3ccc(C)cc3)NC(=N)N(C3CCCCC3)C2=O)cc1 [Example 156, 3-cyclohexyl-2-imino-5,5-bis(4-methylphenyl)-imidazolidin-4-one]
- IC50 [1, 4]: 1260 nM
- IC50 [1, 3]: 1260 nM
- IC50 ([2]; Table 13, read-out: PM-2 IC50): 14 nM

SMILES: COc1ccc(C2(c3ccc(OC)cc3)NC(=N)N(CC(C)(C)C)C2=O)cc1 [Example 252, 3-(2,2-dimethylpropyl)-2-imino-5,5-bis(4-methoxyphenyl)-imidazolidin-4-one]
- IC50 [1, 3]: 266 nM
- IC50 ([2]; Table 13, read-out: PM-2 IC50): 5.28 nM

SMILES: N=C1NC(c2ccccc2)(c2cccc(-c3ccncc3)c2)C(=O)N1C1CCCCC1 (stereo not shown) [Example 211, 3-cyclohexyl-2-imino-5-phenyl-5-[3-(pyridin-4-yl)phenyl]-imidazolidin-4-one]
- IC50 [1, 3]: 1030 nM
- IC50 ([2]; Table 13, read-out: PM-2 IC50): 14.1 nM

SMILES: COc1ccc(C2(c3ccc(OC)cc3)NC(=S)N(C3CCCCC3)C2=O)cc1
- IC50 ([1]; 3D7, Table 8, read-out: Pf 3D7 IC50): > 5000 nM
- IC50 ([2]; Table 8, read-out: PM-II IC50): > 10000 nM

SMILES: N=C1NC(c2ccccc2Cl)(c2ccccc2Cl)C(=O)N1C1CCCCC1 [Example 202, 5,5-bis(2-chlorophenyl)-3-cyclohexyl-2-iminoimidazolidin-4-one]
- IC50 [1, 3]: 349 nM
- IC50 ([2]; Table 13, read-out: PM-2 IC50): 6750 nM

SMILES: COc1ccc(C2(c3cccc(-c4ccncc4)c3)NC(=N)N(C3CCCCC3)C2=O)cc1 (stereo not shown) [Example 172, 3-cyclohexyl-2-imino-5-(4-methoxyphenyl)-5-[3-(pyridin-4-yl)phenyl]-imidazolidin-4-one]
- IC50 [1, 3]: 533 nM
- IC50 ([2]; Table 13, read-out: PM-2 IC50): 9.64 nM

SMILES: COc1cccc(C2(c3ccccc3)NC(=N)N(C3CCCCC3)C2=O)c1 (stereo not shown) [Example 153, 3-cyclohexyl-2-imino-5-(3-methoxyphenyl)-5-phenylimidazolidin-4-one]
- IC50 [1, 4]: 917 nM
- IC50 [1, 3]: 917 nM
- IC50 ([2]; Table 13, read-out: PM-2 IC50): 24.9 nM

SMILES: N=C1NC(c2ccccc2)(c2ccccc2)C(=O)N1Cc1ccccc1 [Example 102, 3-benzyl-2-imino-5,5-diphenyl-imidazolidin-4-one]
- IC50 [1, 5]: 8290 nM
- IC50 [1, 3]: 8290 nM
- IC50 ([2]; Table 13, read-out: PM-2 IC50): 33.1 nM

SMILES: COc1cccc(C2(c3cccc(OC)c3)NC(=N)N(Cc3ccccc3)C2=O)c1 [Example 105, 3-benzyl-2-imino-5,5-bis(3-methoxy-phenyl)imidazolidin-4-one]
- IC50 [1, 3]: 6310 nM
- IC50 ([2]; Table 13, read-out: PM-2 IC50): 57.4 nM

SMILES: COc1ccc(C2(c3ccc(OC)cc3)NC(=N)N(C3CCCC3)C2=O)cc1 [Example 159, 3-cyclopentyl-2-imino-5,5-bis(4-methoxyphenyl)-imidazolidin-4-one]
- IC50 [1, 5]: 611 nM
- IC50 [1, 3]: 611 nM
- IC50 ([2]; Table 13, read-out: PM-2 IC50): 25.1 nM

SMILES: COc1ccc(C2(c3ccc(OC)cc3)NC(=N)N(Cc3ccccc3)C2=O)cc1 [Example 162, 3-benzyl-2-imino-5,5-bis(4-methoxyphenyl)-imidazolidin-4-one]
- IC50 [1, 5]: 855 nM
- IC50 [1, 3]: 855 nM
- IC50 ([2]; Table 13, read-out: PM-2 IC50): 7.3 nM

SMILES: N=C1NC(c2ccccc2)(c2ccccc2)C(=O)N1C1CC1 [Example 142, 3-cyclopropyl-2-imino-5,5-diphenylimidazolidin-4-one]
- IC50 [1, 3]: 10800 nM
- IC50 ([2]; Table 13, read-out: PM-2 IC50): 1790 nM

SMILES: COc1ccc(C2(c3ccc(OC)c(OC)c3)NC(=N)N(C3CCCCC3)C2=O)cc1OC [Example 173, 3-cyclohexyl-5,5-bis(3,4-dimethoxy-phenyl)-2-imino-imidazolidin-4-one]
- IC50 [1, 3]: 614 nM
- IC50 ([2]; Table 13, read-out: PM-2 IC50): 54.7 nM

SMILES: COc1ccc(C2(c3ccc(OC)cc3)NC(=N)N(Cc3ccccc3C)C2=O)cc1 [Example 303, 2-imino-5,5-bis(4-methoxyphenyl)-3-[(2-methylphenyl)-methyl]imidazolidin-4-one]
- IC50 [1, 3]: 1010 nM
- IC50 ([2]; Table 13, read-out: PM-2 IC50): 3.1 nM

SMILES: COc1ccc(C2(c3ccc(OC)cc3)NC(=N)N(Cc3cccc(C)c3C)C2=O)cc1 [Example 277, 3-[(2,3-dimethyl-phenyl)methyl]-2-imino-5,5-bis(4-methoxyphenyl)-imidazolidin-4-one]
- IC50 [1, 3]: 1570 nM
- IC50 ([2]; Table 13, read-out: PM-2 IC50): 4.39 nM

SMILES: N=C1NC(c2ccc(Cl)cc2)(c2ccc(Cl)cc2)C(=O)N1C1CCCCC1 [Example 155, 5,5-bis(4-chlorophenyl)-3-cyclohexyl-2-iminoimidazolidin-4-one]
- IC50 [1, 4]: 1070 nM
- IC50 [1, 3]: 1070 nM
- IC50 ([2]; Table 13, read-out: PM-2 IC50): 6 nM

SMILES: N=C1NC(c2ccc(Br)cc2)(c2ccc(Br)cc2)C(=O)N1C1CCCCC1 [Example 154, 5,5-bis(4-bromophenyl)-3-cyclohexyl-2-iminoimidazolidin-4-one]
- IC50 [1, 3]: 1480 nM
- IC50 ([2]; Table 13, read-out: PM-2 IC50): 9.9 nM

SMILES: COc1cccc(C2(c3cccc(OC)c3)NC(=N)N(C3CCCC3)C2=O)c1 [Example 168, 3-cyclopentyl-2-imino-5,5-bis(3-methoxyphenyl)-imidazolidin-4-one]
- IC50 [1, 3]: 1090 nM
- IC50 ([2]; Table 13, read-out: PM-2 IC50): 110 nM

SMILES: COc1ccc(C2(c3ccc(OC)cc3)NC(=N)N(Cc3ccccc3C(F)(F)F)C2=O)cc1 [Example 304, 2-imino-5,5-bis(4-methoxyphenyl)-3-{[2-(trifluoromethyl)-phenyl]methyl}-imidazolidin-4-one]
- IC50 [1, 3]: 1340 nM
- IC50 ([2]; Table 13, read-out: PM-2 IC50): 1.88 nM

SMILES: N=C1NC(c2ccccc2)(c2cccc(OCc3ccccc3)c2)C(=O)N1C1CCCCC1 (stereo not shown) [Example 228, 5-[3-(benzyloxy)-phenyl]-3-cyclohexyl-2-imino-5-phenylimidazolidin-4-one]
- IC50 [1, 4]: 641 nM
- IC50 [1, 3]: 641 nM
- IC50 ([2]; Table 13, read-out: PM-2 IC50): 2.89 nM

SMILES: COc1ccc(C2(c3ccc(OC)cc3)NC(=N)N(CC3CCCO3)C2=O)cc1 (stereo not shown) [Example 274, 2-imino-5,5-bis(4-methoxyphenyl)-3-(oxolan-2-ylmethyl)-imidazolidin-4-one]
- IC50 [1, 3]: 633 nM
- IC50 ([2]; Table 13, read-out: PM-2 IC50): 11.4 nM

SMILES: COc1ccc(C2(c3ccc(OC)cc3)NC(=N)N(C3CCC3)C2=O)cc1 [Example 204, 3-cyclobutyl-2-imino-5,5-bis(4-methoxyphenyl)-imidazolidin-4-one]
- IC50 [1, 5]: 722 nM
- IC50 [1, 3]: 722 nM
- IC50 ([2]; Table 13, read-out: PM-2 IC50): 67.4 nM

SMILES: COc1ccc(C2(c3ccc(OC)cc3)NC(=N)N(Cc3ccccc3OC)C2=O)cc1 [Example 248, 2-imino-5,5-bis(4-methoxyphenyl)-3-[(2-methoxyphenyl)-methyl]imidazolidin-4-one]
- IC50 [1, 3]: 294 nM
- IC50 ([2]; Table 13, read-out: PM-2 IC50): 28 nM

SMILES: COc1ccc(C2(c3ccc(OC)cc3)NC(=N)N(Cc3cccnc3)C2=O)cc1 [Example 219, 2-imino-5,5-bis(4-methoxyphenyl)-3-(pyridin-3-ylmethyl)-imidazolidin-4-one]
- IC50 [1, 3]: 582 nM
- IC50 ([2]; Table 13, read-out: PM-2 IC50): 9.62 nM
